In PubChem BioAssay (NCI):
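Interpolation was linear, between the two tested concentrations surrounding the appropriate level; five concentrations were tested over 48 hours in 96-well plates. At the GI50, growth is halved. Definition used: TGI = concentration required for complete inhibition of growth.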

What was measured:
Assay in all cases: growth of human tumour cells (NCI), 48 h
TK-10 renal = system: TK-10 renal
NCI-H226 lung = system: NCI-H226 lung
NCI-H23 lung = system: NCI-H23 lung
HT29 colon = system: HT29 colon
SR leukemia = system: SR leukemia
OVCAR-5 ovarian = system: OVCAR-5 ovarian
UACC-257 melanoma = system: UACC-257 melanoma
HCT-15 colon = system: HCT-15 colon
HCC-2998 colon = system: HCC-2998 colon
CCRF-CEM leukemia = system: CCRF-CEM leukemia

SMILES	GI50 (TK-10 renal)	TGI (TK-10 renal)	GI50 (NCI-H226 lung)	TGI (NCI-H226 lung)	GI50 (NCI-H23 lung)	TGI (NCI-H23 lung)	GI50 (HT29 colon)	TGI (HT29 colon)	GI50 (SR leukemia)	TGI (SR leukemia)	GI50 (OVCAR-5 ovarian)	TGI (OVCAR-5 ovarian)	GI50 (UACC-257 melanoma)	TGI (UACC-257 melanoma)	GI50 (HCT-15 colon)	TGI (HCT-15 colon)	GI50 (HCC-2998 colon)	TGI (HCC-2998 colon)	GI50 (CCRF-CEM leukemia)	TGI (CCRF-CEM leukemia)
Cc1ccc(C(SCC(N)C(=O)O)(c2ccc(C)cc2)c2ccc(C)cc2)cc1 (stereo not drawn)	8.31 µM	22.6 µM	9.84 µM	> 49.8 µM	4.87 µM	> 43.2 µM	3.55 µM	> 34.8 µM	1.92 µM	6.91 µM	9.2 µM	> 48.6 µM	6.18 µM	26.7 µM	4.54 µM	27.9 µM	2.5 µM	11 µM	3.08 µM	55.4 µM
CS(=O)(=O)Nc1ccc(-c2cc(-c3ccccc3)cc(C(N)=O)c2N)cc1	> 25 µM	> 25 µM	> 25 µM	> 25 µM	> 25 µM	> 25 µM	> 25 µM	> 25 µM	16.5 µM	> 25 µM	> 25 µM	> 25 µM	> 25 µM	> 25 µM	> 22.2 µM	> 25 µM	> 25 µM	> 25 µM	17.8 µM	> 25 µM
O=C(c1ccccc1)N1C2CCC1C(C(F)(F)F)=C2C(F)(F)F	–	> 100 µM	–	> 100 µM	–	> 100 µM	–	> 100 µM	–	> 100 µM	–	> 100 µM	–	> 100 µM	–	> 100 µM	–	> 100 µM	–	> 100 µM
CNCc1cc(OC)ccc1-c1ccc(OC)c(OC)c1OC	–	> 100 µM	–	> 100 µM	–	> 100 µM	–	> 100 µM	–	> 100 µM	–	> 100 µM	–	> 100 µM	–	> 100 µM	–	> 100 µM	–	> 100 µM
CC1=NOC(=O)/C1=C/c1cccc2ccccc12	–	> 100 µM	–	> 100 µM	–	> 100 µM	–	> 100 µM	–	> 100 µM	–	> 100 µM	–	> 100 µM	–	> 100 µM	–	> 100 µM	–	> 100 µM
NC(=O)c1ccc(NN=O)nc1	–	> 100 µM	–	> 100 µM	–	> 100 µM	–	> 100 µM	–	> 100 µM	–	> 100 µM	–	> 100 µM	–	> 100 µM	–	> 100 µM	–	> 100 µM
O=[N+]([O-])c1ccccc1N/N=C\c1c[nH]c2ccccc12	15 µM	> 72.6 µM	12.6 µM	> 100 µM	16.8 µM	> 100 µM	16.8 µM	> 61.7 µM	3.4 µM	> 100 µM	> 58.2 µM	> 100 µM	26.4 µM	> 100 µM	5.68 µM	> 100 µM	10.9 µM	> 100 µM	5.1 µM	> 100 µM
Clc1ccc2c(c1)N(c1ncnc3ccc(-c4cnc5[nH]ccc5c4)cc13)CC2	1.29 µM	14.5 µM	2.76 µM	22 µM	3.2 µM	52.4 µM	1.03 µM	2.66 µM	0.595 µM	> 100 µM	0.898 µM	22 µM	14.8 µM	63.2 µM	1.06 µM	12.5 µM	11.3 µM	68.9 µM	1.71 µM	> 100 µM
CCOC(=O)c1c(C)n2c(=O)cc(C)c3c(O)c(O)cc1c32	5.47 µM	> 100 µM	9.2 µM	93.5 µM	10.9 µM	51.6 µM	24.5 µM	> 100 µM	0.721 µM	17 µM	43.8 µM	> 100 µM	2.7 µM	7.65 µM	2.48 µM	51.1 µM	40.8 µM	> 100 µM	0.746 µM	6.05 µM
NC1CCC(Nc2nc(NCc3ccc(-c4cccs4)nc3)c3ncn(C4CCCC4)c3n2)CC1 (stereo not drawn)	0.166 µM	2.69 µM	0.131 µM	1.31 µM	0.0383 µM	0.319 µM	< 0.0143 µM	0.315 µM	0.0328 µM	0.582 µM	0.0302 µM	2.58 µM	0.0568 µM	0.295 µM	0.342 µM	5.36 µM	0.0307 µM	0.49 µM	0.0329 µM	0.554 µM
CC(=O)c1cc(C(=O)c2ccc3c(c2)Sc2ccccc2N3)c2c(C)cc(C)cn12	1.31 µM	> 100 µM	0.73 µM	> 100 µM	0.482 µM	> 100 µM	0.315 µM	0.962 µM	0.302 µM	> 100 µM	0.794 µM	> 100 µM	2.04 µM	> 100 µM	0.344 µM	> 100 µM	0.494 µM	> 100 µM	0.277 µM	> 100 µM
Cl.Fc1c[c-]c(-c2ccccn2)c(F)c1.[Pt].c1ccc(P(c2ccccc2)C([PH+](c2ccccc2)c2ccccc2)[PH+](c2ccccc2)c2ccccc2)cc1	2.67 µM	11.9 µM	2.78 µM	32.8 µM	3.06 µM	61.1 µM	3.23 µM	21.6 µM	2.61 µM	> 100 µM	2.97 µM	> 100 µM	2.75 µM	8.09 µM	6.88 µM	> 100 µM	4.43 µM	29.6 µM	3.26 µM	> 100 µM
CCOC(=O)n1cc(C2=C(c3cn(C)c4ccccc34)COC2=O)c2ccccc21	10 µM	31 µM	0.452 µM	> 39 µM	0.436 µM	35.5 µM	0.0464 µM	–	0.0449 µM	16.4 µM	0.462 µM	> 100 µM	3.52 µM	> 100 µM	0.0382 µM	> 63 µM	0.167 µM	> 100 µM	0.218 µM	> 100 µM
COC(=O)[C@]12CC[C@@H](C)[C@H](C)[C@@H]1C1=CC[C@@H]3[C@@]4(C)C(C=O)=C[C@@](C)(COC(C)=O)C4=CC[C@@]3(C)[C@]1(C)CC2	9.31 µM	21.6 µM	6.28 µM	22.8 µM	4.53 µM	19.3 µM	3.17 µM	11 µM	2.22 µM	7.83 µM	5.75 µM	21.7 µM	4.19 µM	17.2 µM	3.38 µM	12.1 µM	3.32 µM	12.4 µM	1.95 µM	7.82 µM
Cn1cc(C2=C(c3cn(C)c4c([N+](=O)[O-])cccc34)C(=O)NC2=O)c2ccccc21	> 25 µM	> 25 µM	> 25 µM	> 25 µM	> 25 µM	> 25 µM	> 25 µM	> 25 µM	> 25 µM	> 25 µM	> 25 µM	> 25 µM	> 25 µM	> 25 µM	> 25 µM	> 25 µM	> 25 µM	> 25 µM	> 25 µM	> 25 µM
Cc1ccccc1-n1ncc(C(=O)c2ccccc2)c1N	> 25 µM	> 25 µM	> 25 µM	> 25 µM	> 25 µM	> 25 µM	> 25 µM	> 25 µM	> 25 µM	> 25 µM	> 25 µM	> 25 µM	> 25 µM	> 25 µM	> 25 µM	> 25 µM	> 25 µM	> 25 µM	> 25 µM	> 25 µM
COc1ccc2c(c1)[nH]c(=O)c1c3cc(OC)ccc3cn21	0.374 µM	1.79 µM	0.262 µM	17.4 µM	0.046 µM	1.12 µM	< 0.0143 µM	0.28 µM	< 0.0106 µM	0.062 µM	0.0545 µM	2.3 µM	14.6 µM	29.1 µM	< 0.01 µM	0.653 µM	0.0159 µM	0.0701 µM	< 0.0132 µM	0.0751 µM
Clc1cccc(Cl)c1C1CSc2ccccc2N=C1c1ccccc1 (stereo not drawn)	3.69 µM	9.27 µM	20.5 µM	74.2 µM	13.1 µM	31.4 µM	3.17 µM	8.64 µM	3.42 µM	> 100 µM	3.88 µM	13.2 µM	13.5 µM	27 µM	1.66 µM	3.98 µM	4.74 µM	15.5 µM	3.44 µM	34.8 µM
C[C@H](Nc1ncnc2nc[nH]c12)c1cc2ccc(F)cc2nc1-c1ccccn1	47.4 µM	> 100 µM	> 89.4 µM	> 100 µM	> 100 µM	> 100 µM	> 100 µM	> 100 µM	33.4 µM	> 100 µM	> 77.2 µM	> 100 µM	> 100 µM	> 100 µM	> 100 µM	> 100 µM	> 100 µM	> 100 µM	> 70.2 µM	> 100 µM
CC(C)(C)C(=O)OCOP(=O)(OCOC(=O)C(C)(C)C)C1CC(O)N(O)C1=O (stereo not drawn)	20.2 µM	> 100 µM	33.5 µM	> 100 µM	3.67 µM	25.3 µM	3.07 µM	16.4 µM	4.2 µM	75.2 µM	20.4 µM	> 100 µM	> 100 µM	> 100 µM	4.28 µM	> 100 µM	4.04 µM	49 µM	0.777 µM	14.3 µM
COc1ccc(C(SCC(N)C(=O)O)(c2ccccc2)c2ccccc2)cc1 (stereo not drawn)	20.6 µM	> 100 µM	11.8 µM	> 71.2 µM	0.414 µM	> 87.4 µM	0.429 µM	> 100 µM	3.21 µM	> 100 µM	4.82 µM	> 100 µM	26.3 µM	> 100 µM	0.451 µM	> 72.2 µM	0.246 µM	12.2 µM	0.0992 µM	> 100 µM
c1cc2[nH]ncc2cc1-c1nc2ccc3[nH]ncc3c2c2c1CCCC2	0.913 µM	21.8 µM	1.73 µM	7.79 µM	1.83 µM	7.44 µM	1.59 µM	13.1 µM	0.338 µM	–	3.06 µM	18.5 µM	1.67 µM	8.21 µM	0.54 µM	11.2 µM	1.98 µM	9.79 µM	0.836 µM	> 25.3 µM
